Experimental data from US8906908B2, “Hydroxybupropion analogues for treating drug dependence” (priority 2010, dated 2014).
Where two headings read alike, the source gives them in different places.

Legend:
α4β2-nAChR = molecular target: T1, α4β2-nAChR (Homo sapiens, UniProt P17787+P43681); assay: 86Rb+ efflux nAChR functional assay, SH-EP1-hα4β2 cells; assay type: cell-based
T1 construct: expressed in transfected cells; host or cells: SH-EP1 epithelial cells (SH-EP1-hα4β2)
Source text: (§1) Cell Lines and Culture: Human embryonic kidney (HEK-293) cells stably expressing human DAT, NET or SERT were maintained as previously described in Eshleman, A. J.; Carmolli, M.; Cumbay, M.; Martens, C. R.; Neve, K. A.; Janowsky, A., J. Pharmacol. Exp. Ther. 1999, 289, (2), 877-885. Use was made of several human cell lines that naturally or heterologously express specific, functional, human nAChR subtypes. Cells of the TE671/RD line naturally expresses muscle-type nAChR (a1β1γδ- or α1*-nAChR), and SH-SY5Y neuroblastoma cells naturally expresses autonomic α3β4*-nAChRs (containing α3, β4, probably α5, and sometimes β2 subunits). Different clones of SH-EP1 epithelial cell lines have been engineered to heterologously express either α4β2-nAChR, which are thought to be the most abundant, high affinity nicotine-binding nAChR in mammalian brain, or α4β4-nAChR, another possible brain nAChR subtype (SH-EP1-hα4β2 or α4β4 cells, respectively). These cells were maintained as low passage number (1-26 from our frozen stocks) cultures to ensure stable expression of native or heterologously-expressed nAChR as previously described (see Lukas, R. J.; Fryer, J. D.; Eaton, J. B.; L., G. C., Some methods for studies of nicotinic acetylcholine receptor pharmacology, in Nicotinic receptors and the Nervous System, Levine, E. D., Ed. CRC Press: Boca Raton, 2002; pp 3-27, incorporated herein by reference in its entirety). Cells were passaged once weekly by splitting just-confluent cultures 1/300 (TE671/RD), 1/5 (SH-SY5Y), or 1/20 (transfected SH-EP1) in serum-supplemented medium to maintain log-phase growth.
(§2) After cells had adhered (generally overnight, but no sooner than 4 h later), the medium was removed and replaced with 250 μL per well of complete medium supplemented with ˜350,000 cpm of ^86Rb^+ (PerkinElmer Life and Analytical Sciences, Boston, Mass.) and counted at 40% efficiency using Cerenkov counting (TriCarb 1900 liquid scintillation analyzer[…]; PerkinElmer Life Sciences).
(§3) After at least 4 h and typically overnight, ^86Rb^+ efflux was measured using the “flip-plate” technique. See Lukas, R. J.; Fryer, J. D.; Eaton, J. B.; L., G. C., Some methods for studies of nicotinic acetylcholine receptor pharmacology, in Nicotinic receptors and the Nervous System, Levine, E. D., Ed. CRC Press: Boca Raton, 2002; pp 3-27, incorporated herein by reference in its entirety). Briefly, after aspiration of the bulk of ^86Rb^+ loading medium from each well of the “cell plate,” each well containing cells was rinsed 3× with 2 mL of fresh ^86Rb^+ efflux buffer (130 mM NaCl, 5.4 mM KCl, 2 mM CaCl2, 5 mM glucose, 50 mM HEPES, pH 7.4) to remove extracellular ^86Rb^+. Following removal of residual rinse buffer by aspiration, the flip-plate technique was used again to simultaneously introduce 1.5 mL of fresh efflux buffer containing drugs of choice at indicated final concentrations from a 24-well “efflux/drug plate” into the wells of the cell plate. After a 5 min incubation, the solution was “flipped” back into the efflux/drug plate, and any remaining buffer in the cell plate was removed by aspiration. Cells remaining in the cell plate were lysed and suspended by addition of 1.5 mL of 0.1 M NaOH, 0.1% sodium dodecyl sulfate to each well.
(§4) Similarly, the sum of ^86Rb^+ in cell plates and efflux/drug plates also determined the efficiency of ^86Rb^+ loading (the percentage of applied ^86Rb^+ actually loaded into cells).
(§5) Specific efflux was then taken as the difference in control samples between total and non-specific ^86Rb^+ efflux. Any intrinsic agonist activity of test drugs was ascertained using samples containing test drug only at different concentrations and was normalized, after subtraction of non-specific efflux, to specific efflux in test drug-free, control samples.

α3β4*-nAChR [1] = molecular target: T2, α3β4*-nAChR (Homo sapiens, UniProt P30926+P32297); assay: 86Rb+ efflux nAChR functional assay, SH-SY5Y cells; assay type: cell-based; settings: EC80-EC90 carbamylcholine; SH-SY5Y; parentheses = S.E.M. as multiplication/division factor; read-out: nAChR inhibition IC50 α3β4±
T2 construct: other: EC80-EC90 carbamylcholine; SH-SY5Y; parentheses = S.E.M. as multiplication/division
T2 sequence (P32297 32-505): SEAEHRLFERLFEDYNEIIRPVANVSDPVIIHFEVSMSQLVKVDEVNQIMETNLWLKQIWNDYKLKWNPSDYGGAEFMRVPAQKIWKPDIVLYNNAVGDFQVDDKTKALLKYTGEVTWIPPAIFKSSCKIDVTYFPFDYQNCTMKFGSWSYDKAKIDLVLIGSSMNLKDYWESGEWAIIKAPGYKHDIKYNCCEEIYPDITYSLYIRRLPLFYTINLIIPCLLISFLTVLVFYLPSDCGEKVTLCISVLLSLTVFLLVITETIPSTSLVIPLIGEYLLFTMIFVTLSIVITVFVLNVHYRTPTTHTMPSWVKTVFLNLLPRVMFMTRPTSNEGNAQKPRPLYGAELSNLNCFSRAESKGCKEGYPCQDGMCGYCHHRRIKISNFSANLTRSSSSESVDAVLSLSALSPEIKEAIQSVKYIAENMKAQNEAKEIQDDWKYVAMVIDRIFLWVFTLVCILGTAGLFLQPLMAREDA
T2 sequence (P30926 22-498): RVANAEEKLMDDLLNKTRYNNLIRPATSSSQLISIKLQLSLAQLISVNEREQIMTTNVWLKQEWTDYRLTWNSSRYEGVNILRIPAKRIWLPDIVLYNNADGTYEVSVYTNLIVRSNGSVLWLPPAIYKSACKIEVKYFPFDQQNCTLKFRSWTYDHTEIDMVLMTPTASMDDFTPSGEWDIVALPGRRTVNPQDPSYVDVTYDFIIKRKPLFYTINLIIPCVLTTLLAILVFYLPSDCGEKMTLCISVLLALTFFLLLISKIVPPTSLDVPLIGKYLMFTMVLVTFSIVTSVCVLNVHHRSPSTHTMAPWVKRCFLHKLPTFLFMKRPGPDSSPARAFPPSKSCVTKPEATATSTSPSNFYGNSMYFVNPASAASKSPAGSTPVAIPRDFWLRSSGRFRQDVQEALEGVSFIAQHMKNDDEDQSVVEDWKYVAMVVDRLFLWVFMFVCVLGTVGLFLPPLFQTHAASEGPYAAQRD
Source text: as §1, §2, §3, §4, §5

NE transporters [h(NET)] = molecular target: T3, NE transporters [h(NET)] (Homo sapiens, UniProt P23975); assay: Inhibition of [3H]norepinephrine uptake into HEK293 cells stably expressing hNET; assay type: cell-based; settings: for selectivity for inhibition of NE over DA uptake: ratio of uptake IC50 values
T3 construct: expressed in transfected cells; host or cells: HEK-293
T3 sequence (P23975 whole entry): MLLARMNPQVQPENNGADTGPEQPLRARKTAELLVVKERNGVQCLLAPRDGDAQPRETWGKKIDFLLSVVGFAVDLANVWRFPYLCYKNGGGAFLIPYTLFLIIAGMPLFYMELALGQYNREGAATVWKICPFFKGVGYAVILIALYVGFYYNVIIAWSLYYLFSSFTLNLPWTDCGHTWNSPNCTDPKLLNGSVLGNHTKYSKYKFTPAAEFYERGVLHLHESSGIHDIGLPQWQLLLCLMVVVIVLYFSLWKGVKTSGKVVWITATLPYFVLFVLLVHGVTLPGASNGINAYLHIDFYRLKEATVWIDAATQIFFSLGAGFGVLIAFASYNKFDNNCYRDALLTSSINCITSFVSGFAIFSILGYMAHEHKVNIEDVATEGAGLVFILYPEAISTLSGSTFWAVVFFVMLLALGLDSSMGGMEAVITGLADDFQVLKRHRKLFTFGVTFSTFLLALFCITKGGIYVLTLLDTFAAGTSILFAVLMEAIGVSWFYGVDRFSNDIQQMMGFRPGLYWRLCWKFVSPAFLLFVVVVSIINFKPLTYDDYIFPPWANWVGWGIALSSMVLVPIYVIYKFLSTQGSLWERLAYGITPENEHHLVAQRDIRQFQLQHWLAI
Source text: as §1
See, for example, Damaj, M. I.; Carroll, F. I.; Eaton, J. B.; Navarro, H. A.; Blough, B. E.; Mirza, S.; Lukas, R. J.; Martin, B. R., Mol. Pharmacol. 2004, 66, (3), 675-682 and Eshleman, A. J.; Carmolli, M.; Cumbay, M.; Martens, C. R.; Neve, K. A.; Janowsky, A., J. Pharmacol. Exp. Ther. 1999, 289, (2), 877-885, both incorporated by reference herein in their entireties.

α3β4*-nAChR [2] = assay: 86Rb+ efflux nAChR functional assay, SH-SY5Y cells; assay type: cell-based, human
Source text: as §1, §2, §3, §4, §5

[3] = EC80-EC90 carbamylcholine, SH-EP1-hα4β2, parentheses = S.E.M. as multiplication/division factor, read-out: nAChR inhibition IC50 α4β2
[4] = HEK293-hNET, mean ± standard error of three independent experiments, read-out: monoamine uptake inhibition IC50 [3H]NE

T1 sequence (P43681 29-627 limits assumed): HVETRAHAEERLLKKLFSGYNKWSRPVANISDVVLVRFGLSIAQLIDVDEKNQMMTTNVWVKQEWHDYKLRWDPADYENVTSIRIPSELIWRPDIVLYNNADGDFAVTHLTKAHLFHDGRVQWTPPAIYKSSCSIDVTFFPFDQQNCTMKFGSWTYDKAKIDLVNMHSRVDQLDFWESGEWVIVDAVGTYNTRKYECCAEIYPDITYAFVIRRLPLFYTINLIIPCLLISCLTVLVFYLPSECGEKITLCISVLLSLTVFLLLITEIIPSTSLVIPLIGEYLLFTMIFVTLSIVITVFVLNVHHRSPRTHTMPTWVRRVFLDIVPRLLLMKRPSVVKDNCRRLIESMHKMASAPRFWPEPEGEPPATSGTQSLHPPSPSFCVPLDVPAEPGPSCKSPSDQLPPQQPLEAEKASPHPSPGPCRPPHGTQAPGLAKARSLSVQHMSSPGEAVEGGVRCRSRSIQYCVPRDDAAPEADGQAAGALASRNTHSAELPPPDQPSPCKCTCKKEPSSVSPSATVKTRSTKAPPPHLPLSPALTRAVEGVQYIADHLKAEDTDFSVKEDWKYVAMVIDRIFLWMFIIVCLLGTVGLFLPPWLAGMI
T1 sequence (P17787 26-502): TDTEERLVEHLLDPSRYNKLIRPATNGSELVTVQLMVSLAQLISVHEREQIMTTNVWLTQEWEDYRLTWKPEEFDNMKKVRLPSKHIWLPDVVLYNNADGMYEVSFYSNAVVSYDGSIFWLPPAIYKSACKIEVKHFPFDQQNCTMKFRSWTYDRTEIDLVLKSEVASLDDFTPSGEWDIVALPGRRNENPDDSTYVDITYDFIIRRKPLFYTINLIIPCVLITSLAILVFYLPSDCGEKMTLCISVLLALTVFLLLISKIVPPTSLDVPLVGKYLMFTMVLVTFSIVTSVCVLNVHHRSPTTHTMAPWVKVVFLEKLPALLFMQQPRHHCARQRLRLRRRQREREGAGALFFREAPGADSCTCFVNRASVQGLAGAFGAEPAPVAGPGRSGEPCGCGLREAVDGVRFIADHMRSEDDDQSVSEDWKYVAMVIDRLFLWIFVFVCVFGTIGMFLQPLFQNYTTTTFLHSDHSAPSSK

## C[C@@H]1NC(C)(C)CO[C@@]1(O)c1cccc(Br)c1 [Compound 4d, (2S,3S)-2-(3-Bromophenyl)-3,5,5-trimethylmorpholin-2-ol]
α4β2-nAChR
  selectivity for inhibition of α4β2-nAChR over DA uptake inhibition: ~6 fold
α4β2-nAChR; [3]
  IC50: 0.55 µM
α3β4*-nAChR [1]
  IC50: 3.2 µM
NE transporters [h(NET)]; [4]
  IC50: 0.92 ± 0.3 µM
NE transporters [h(NET)]
  selectivity for inhibition of NE over DA uptake: ~3.6 fold

## CC[C@@H]1NC(C)(C)CO[C@@]1(O)c1cccc(Cl)c1 [Compound 4s, (2S,3S)-2-(3-Chlorophenyl)-3-ethyl-5,5-dimethylmorpholin-2-ol]
α4β2-nAChR; [3]
  IC50: 2.9 µM
α3β4*-nAChR [1]
  IC50: 4.3 µM
NE transporters [h(NET)]; [4]
  IC50: 0.043 µM
NE transporters [h(NET)]
  selectivity for inhibition of NE over DA uptake: 5 fold

## CC1NC(C)(C)COC1(O)c1ccc(Cl)c(Cl)c1 (racemic) [Compound 4n, 2-(3,4-Dichlorophenyl)-3,5,5-trimethylmorpholin-2-ol]
α4β2-nAChR; [3]
  IC50: 20 µM
α3β4*-nAChR [2]
  selectivity for α3β4*- over α4β2-nAChR: ~8 fold
NE transporters [h(NET)]
  IC50: 0.114 µM
  selectivity for inhibition of NE uptake over α3β4*-nAChR function: ~23 fold

## Cc1ccc([C@]2(O)OCC(C)(C)N[C@H]2C)cc1 [Compound 4j, (2S,3S)-3,5,5-Trimethyl-2-(4-methylphenyl)morpholin-2-ol]
α4β2-nAChR; [3]
  IC50: 12 µM
α3β4*-nAChR [1]
  IC50: 8.6 µM
NE transporters [h(NET)]; [4]
  IC50: 1.68 ± 0.33 µM

## Cc1cccc([C@]2(O)OCC(C)(C)N[C@H]2C)c1 [Compound 4e, (2S,3S)-2-(m-Tolyl)-3,5,5-trimethylmorpholin-2-ol]
α4β2-nAChR; [3]
  IC50: 6 µM
α3β4*-nAChR [1]
  IC50: 8.6 µM
NE transporters [h(NET)]; [4]
  IC50: 1.13 ± 0.02 µM

## C[C@@H]1N(C)C(C)(C)CO[C@@]1(O)c1ccc(Cl)cc1 [Compound 4v, (2S,3S)-2-(4-Chlorophenyl)-3,4,5,5-tetramethylmorpholin-2-ol]
α4β2-nAChR; [3]
  IC50: 42 µM
α3β4*-nAChR [1]
  IC50: 4.6 µM
NE transporters [h(NET)]; [4]
  IC50: 0.527 ± 0.104 µM

## C[C@@H]1N(C)C(C)(C)CO[C@@]1(O)c1cccc(Cl)c1 [Compound 4u, (2S,3S)-2-(3-Chlorophenyl)-3,4,5,5-tetramethylmorpholin-2-ol]
α4β2-nAChR; [3]
  IC50: 7.1 µM
α3β4*-nAChR [1]
  IC50: 6.5 µM
NE transporters [h(NET)]; [4]
  IC50: 0.415 ± 0.009 µM

## C[C@@H]1NC(C)(C)CO[C@@]1(O)c1ccc(F)cc1 [Compound 4h, (2S,3S)-2-(4-Fluorophenyl)-3,5,5-trimethylmorpholin-2-ol]
α4β2-nAChR; [3]
  IC50: 12 µM
α3β4*-nAChR [1]
  IC50: 20 µM
NE transporters [h(NET)]; [4]
  IC50: 3.8 ± 0.6 µM

## C[C@@H]1NC(C)(C)CO[C@@]1(O)c1cc(F)cc(F)c1 [Compound 4o, (2S,3S)-2-(3,5-Difluorophenyl)-3,5,5-trimethylmorpholin-2-ol]
α4β2-nAChR
  IC50: < 10 µM
α4β2-nAChR; [3]
  IC50: 6.3 µM
α3β4*-nAChR [1]
  IC50: 11 µM
NE transporters [h(NET)]
  selectivity for inhibition of NE uptake over α4β2-nAChR function: 42 fold
NE transporters [h(NET)]; [4]
  IC50: 0.151 ± 0.043 µM

## C[C@@H]1NC(C)(C)CO[C@@]1(O)c1cccc([N+](=O)[O-])c1 [Compound 4g, (2S,3S)-2-(3-Nitrophenyl)-3,5,5-trimethylmorpholin-2-ol]
α4β2-nAChR
  IC50: < 10 µM
  selectivity for α4β2-nAChR over other nAChR subtypes: ~3 fold
α4β2-nAChR; [3]
  IC50: 4.8 µM
α3β4*-nAChR [1]
  IC50: 14 µM
NE transporters [h(NET)]; [4]
  IC50: 1.21 ± 0.34 µM
NE transporters [h(NET)]
  selectivity for inhibition of NE over DA uptake: 10 fold

## C[C@@H]1NC(C)(C)CO[C@@]1(O)c1ccc(F)c(F)c1 [Compound 4m, (2S,3S)-2-(3,4-Difluorophenyl)-3,5,5-trimethylmorpholin-2-ol]
α4β2-nAChR; [3]
  IC50: 12 µM
α3β4*-nAChR [1]
  IC50: 11.9 µM
NE transporters [h(NET)]; [4]
  IC50: 0.74 ± 0.11 µM

## C[C@@H]1NC(C)(C)CO[C@@]1(O)c1ccc(Cl)cc1 [Compound 4i, (2S,3S)-2-(4-Chlorophenyl)-3,5,5-trimethylmorpholin-2-ol]
α4β2-nAChR; [3]
  IC50: 9.2 µM
α3β4*-nAChR [1]
  IC50: 5.1 µM
NE transporters [h(NET)]; [4]
  IC50: 0.83 ± 0.09 µM

## COc1cccc([C@]2(O)OCC(C)(C)N[C@H]2C)c1 [Compound 4f, (2S,3S)-2-(3-Methoxyphenyl)-3,5,5-trimethylmorpholin-2-ol]
α4β2-nAChR
  IC50: < 10 µM
α4β2-nAChR; [3]
  IC50: 10 µM
α3β4*-nAChR [1]
  IC50: 11 µM
NE transporters [h(NET)]; [4]
  IC50: 3 ± 0.9 µM
NE transporters [h(NET)]
  selectivity for inhibition of NE over DA uptake: 5 fold

## C[C@@H]1NC(C)(C)CO[C@@]1(O)c1cccc2ccccc12 [Compound 4q, (2S,3S)-2-(Naphthalen-1-yl)-3,5,5-trimethylmorpholin-2-ol]
α4β2-nAChR; [3]
  IC50: 9 µM
α3β4*-nAChR [1]
  IC50: 5.2 µM
NE transporters [h(NET)]; [4]
  IC50: 0.411 ± 0.053 µM
NE transporters [h(NET)]
  selectivity for inhibition of NE over DA uptake: 24 fold

## C[C@@H]1NC(C)(C)CO[C@@]1(O)c1ccc(-c2ccccc2)cc1 [Compound 4l, (2S,3S)-2-Biphenyl-4-yl-3,5,5-trimethylmorpholin-2-ol]
α4β2-nAChR
  IC50: < 10 µM
α4β2-nAChR; [3]
  IC50: 1.8 µM
α3β4*-nAChR [1]
  IC50: 1.3 µM
NE transporters [h(NET)]; [4]
  IC50: 10.3 µM

## COc1ccc([C@]2(O)OCC(C)(C)N[C@H]2C)cc1 [Compound 4k, (2S,3S)-2-(4-Methoxyphenyl)-3,5,5-trimethylmorpholin-2-ol]
α4β2-nAChR; [3]
  IC50: 27 µM
α3β4*-nAChR [1]
  IC50: 11 µM
NE transporters [h(NET)]; [4]
  IC50: > 10 µM

## C[C@@H]1NC(C)(C)CO[C@@]1(O)c1cccc(F)c1 [Compound 4c, (2S,3S)-2-(3-Fluorophenyl)-3,5,5-trimethylmorpholin-2-ol]
α4β2-nAChR; [3]
  IC50: 1.3 µM
α3β4*-nAChR [1]
  IC50: 15 µM
NE transporters [h(NET)]; [4]
  IC50: 0.74 ± 0.15 µM

## CC1NC(C)(C)COC1(O)c1cc(Cl)cc(Cl)c1 (racemic) [Compound 4p, 2-(3,5-Dichlorophenyl)-3,5,5-trimethylmorpholin-2-ol]
α4β2-nAChR; [3]
  IC50: 11 µM
NE transporters [h(NET)]
  selectivity for inhibition of NE uptake over α3β4*-nAChR function: 1.6 fold
NE transporters [h(NET)]; [4]
  IC50: 2.44 ± 0.73 µM

## C[C@@H]1NC(C)(C)CO[C@@]1(O)c1ccccc1 [Compound 4b, (2S,3S)-2-Phenyl-3,5,5-trimethylmorpholin-2-ol]
α4β2-nAChR
  IC50: < 10 µM
α4β2-nAChR; [3]
  IC50: 6.4 µM
α3β4*-nAChR [1]
  IC50: 8.9 µM
NE transporters [h(NET)]; [4]
  IC50: 0.55 ± 0.09 µM

## C[C@@H]1NC(C)(C)CO[C@@]1(O)c1ccc2ccccc2c1 [Compound 4r, (2S,3S)-2-(Naphthalen-2-yl)-3,5,5-trimethylmorpholin-2-ol]
α4β2-nAChR; [3]
  IC50: 6.5 µM
α3β4*-nAChR [1]
  IC50: 2 µM
NE transporters [h(NET)]
  selectivity for inhibition of NE uptake over α3β4*-nAChR function: 1.3 fold
  selectivity for inhibition of NE uptake over α4β2-nAChR function: ~4 fold
NE transporters [h(NET)]; [4]
  IC50: 1.57 ± 0.43 µM
